# Laboratory results from patent US10364222B2, “Cyclic amine derivative and medical use thereof” (Toray Industries, Inc., priority 2016, dated 2019).
# How the values were obtained:
# [1] = system: IL-17 production in mouse splenocytes; assay: Suppressive effect on IL-17 production by IL-23 stimulation in mouse splenocytes; assay type: cell-based; settings: Splenocyte, 72 h, at 5 μmol/L of the test compound, 10 ng/mL human IL-23, 3 days, read-out: IL-17 production inhibition rate (%)
# How it was run: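 Splenocytes from male C57BL/6J mice (3×10^5/well, with 100 U/mL human IL-2) stimulated with 10 ng/mL human IL-23 plus compound (0.1% DMSO) for 3 days at 37 °C. Supernatant IL-17 measured by ELISA; inhibition calculated against unstimulated and IL-23-only wells.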
# [2] = system: oxazolone-induced mouse atopic dermatitis model; assay: Oxazolone-induced mouse atopic dermatitis model; assay type: in vivo; settings: BALB/c mice; 10 mg/kg orally once daily for 15 days from the sensitization day; vs vehicle, Student's t-test P<0.05
# Description: Using increase in the ear thickness as an index of exacerbation of symptoms, the effect of the cyclic amine derivative (I) or a pharmacologically acceptable salt thereof in an oxazolone-induced mouse atopic dermatitis model was evaluated. The oxazolone-induced mouse atopic dermatitis model was prepared by a partially modified method by Nakajima et al. (Journal of Investigative Dermatology, 2014, Vol. 134, p. 2122-2130).
# BALB/c mice (female, 7 weeks old) (Charles River Laboratories Japan, Inc.) were used at 8 or 9 weeks old after preliminary breeding. To the back of the mice, 25 μL of a 3 w/v % oxazolone solution dissolved in ethanol was applied to sensitize the mice. Every other day from 5 days to 13 days after the sensitization, 10 μL each of a 0.6 w/v % oxazolone solution dissolved in ethanol was applied to both sides of the right auricle of the sensitized mice to induce inflammation.
# The test compound at a dose of 10 mg/kg was administered to the mice once daily for 15 days from the sensitization day to 14 days after sensitization. As the test compound, the compound of Example 20, the compound of Example 29, and the compound of Example 57 were used. The compound of Example 20, the compound of Example 29, and the compound of Example 57 were suspended in a 0.5 w/v % methylcellulose solution and orally administered. The group in which the compound of Example 20 was administered to mice was defined as the Example-20 compound administration group, the group in which the compound of Example 29 was administered was defined as the Example-29 compound administration group, and the group in which the compound of Example 57 was administered was defined as the Example-57 compound administration group. In the vehicle administration group, a vehicle of each test compound (0.5 w/v % methylcellulose solution) was similarly administered.
# The right ear thickness before application of the oxazolone solution (before sensitization) on the sensitization day and the right ear thickness on the next day of final induction were measured with a digital micrometer (Mitutoyo Corporation). […]
SMILES,inhibition at 5 µM [1] [%],"change in the ear thickness (right ear, next day of final induction − before sensitization) [2]"
"CN(CC(=O)N1CCCC[C@@H]1C(=O)Nc1ccc(-c2ccccc2OC(F)(F)F)c(Cl)c1)S(C)(=O)=O [Example 29, (R)-N-(2-chloro-2′-(trifluoromethoxy)-[1,1′-biphenyl]-4-yl)-1-(2-(N-methylmethylsulfonamide)acetyl)piperidine-2-carboxamide]",100,statistically significantly suppressed
"CC(=O)N1CCCC[C@@H]1C(=O)Nc1ccc(-c2ccccc2OC(F)(F)F)c(Cl)c1 [Example 20, (R)-1-acetyl-N-(2-chloro-2′-(trifluoromethoxy)-[1,1′-biphenyl]-4-yl)piperidine-2-carboxamide]",99.7,statistically significantly suppressed
"O=C(Nc1ccc(-c2ccccc2OC(F)(F)F)c(Cl)c1)[C@H]1CCCCN1C(=O)Cn1cnnn1 [Example 57, (R)-1-(2-(1H-tetrazol-1-yl)acetyl)-N-(2-chloro-2′-(trifluoromethoxy)-[1,1′-biphenyl]-4-yl)piperidine-2-carboxamide]",101,statistically significantly suppressed
